Results from PubChem BioAssay (NCI).
Several values for one entry are separate records, joined by “and”; a condition that tells them apart may be missing. Identical values can stand only once.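 Where inhibition never reached the appropriate level, the endpoint shown equals the highest concentration tested. Otherwise, values were interpolated linearly from a five-concentration, 48-hour dose response in 96-well plates. GI50 marks 50% less growth. TGI marks complete inhibition of growth.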

Assays:
Assay in all cases: NCI anticancer screen, dose series, 48 h
BT-549 breast = tested on: BT-549 breast
COLO 205 colon = tested on: COLO 205 colon
DU-145 prostate = tested on: DU-145 prostate
HCT-116 colon = tested on: HCT-116 colon
LOX IMVI melanoma = tested on: LOX IMVI melanoma
NCI-H23 lung = tested on: NCI-H23 lung
OVCAR-5 ovarian = tested on: OVCAR-5 ovarian
RPMI-8226 leukemia = tested on: RPMI-8226 leukemia
SN12C renal = tested on: SN12C renal
UACC-257 melanoma = tested on: UACC-257 melanoma

## Cc1ncsc1-c1ccc(CNC(=O)[C@@H]2C[C@@H](O)CN2C(=O)[C@@H](NC(=O)C2(C#N)CC2)C(C)(C)C)cc1
BT-549 breast
  GI50: > 100000 nM
  TGI: > 100 µM
COLO 205 colon
  GI50: > 100000 nM
  TGI: > 100 µM
DU-145 prostate
  GI50: > 100 µM
  TGI: > 100 µM
HCT-116 colon
  GI50: > 100000 nM
  TGI: > 100 µM
LOX IMVI melanoma
  GI50: > 100000 nM
  TGI: > 100 µM
NCI-H23 lung
  GI50: > 100000 nM
  TGI: > 100 µM
OVCAR-5 ovarian
  GI50: > 100000 nM
  TGI: > 100 µM
RPMI-8226 leukemia
  GI50: 62.4 µM
  TGI: > 100 µM
SN12C renal
  GI50: > 100000 nM
  TGI: > 100 µM
UACC-257 melanoma
  GI50: > 100000 nM
  TGI: > 100 µM

## CC1=C([Te]c2ccc(O)cc2)C(=O)c2ccccc2C1=O
BT-549 breast
  GI50: 448 nM
  TGI: 4.22 µM
COLO 205 colon
  GI50: 383 nM
  TGI: 1.4 µM
DU-145 prostate
  GI50: 2.32 µM
  TGI: 6.02 µM
HCT-116 colon
  GI50: 715 nM
  TGI: 2.05 µM
LOX IMVI melanoma
  GI50: 1690 nM
  TGI: 4.35 µM
NCI-H23 lung
  GI50: 1840 nM
  TGI: 5.84 µM
OVCAR-5 ovarian
  GI50: 2440 nM
  TGI: 7.75 µM
RPMI-8226 leukemia
  GI50: 1.16 µM
  TGI: 4.51 µM
SN12C renal
  GI50: 2290 nM
  TGI: 9.33 µM
UACC-257 melanoma
  GI50: 2910 nM
  TGI: 10.4 µM

## N#CC1=C(N)NC(=S)NC12Nc1ccccc1N2
BT-549 breast
  GI50: 33100 nM
  TGI: 91.2 µM
COLO 205 colon
  GI50: 32600 nM
  TGI: > 100 µM
DU-145 prostate
  GI50: 65.3 µM
  TGI: > 100 µM
HCT-116 colon
  GI50: 50000 nM
  TGI: > 100 µM
LOX IMVI melanoma
  GI50: 80100 nM
  TGI: > 100 µM
NCI-H23 lung
  GI50: 36700 nM
  TGI: > 100 µM
OVCAR-5 ovarian
  GI50: 46800 nM
  TGI: > 100 µM
RPMI-8226 leukemia
  GI50: 21.7 µM
  TGI: > 100 µM
SN12C renal
  GI50: 55500 nM
  TGI: > 100 µM
UACC-257 melanoma
  GI50: > 100000 nM
  TGI: > 100 µM

## O=C(Nc1nc2ccc(F)cc2s1)c1cccnc1Nc1ccc(Cl)cc1
BT-549 breast
  GI50: 2770 nM
  TGI: > 29.3 µM
COLO 205 colon
  GI50: 1720 nM
  TGI: 3.48 µM
DU-145 prostate
  GI50: 3.76 µM
  TGI: > 100 µM
HCT-116 colon
  GI50: 1990 nM
  TGI: > 29.2 µM
LOX IMVI melanoma
  GI50: 2660 nM
  TGI: > 28.8 µM
NCI-H23 lung
  GI50: 1670 nM
  TGI: 8.38 µM
OVCAR-5 ovarian
  GI50: 2640 nM
  TGI: > 61.1 µM
RPMI-8226 leukemia
  GI50: 1.24 µM
  TGI: 7.47 µM
SN12C renal
  GI50: 2630 nM
  TGI: > 100 µM
UACC-257 melanoma
  GI50: 677 nM

## CC1(C)CCC(C)(C)c2c1ccc(O)c2Cc1c(O)ccc2c1C(C)(C)CCC2(C)C
BT-549 breast
  TGI: 5.2 µM
COLO 205 colon
  TGI: 4.44 µM
DU-145 prostate
  TGI: 5.45 µM
HCT-116 colon
  TGI: 4.2 µM
LOX IMVI melanoma
  TGI: 3.39 µM
NCI-H23 lung
  TGI: 4.11 µM
OVCAR-5 ovarian
  TGI: 4.56 µM
RPMI-8226 leukemia
  TGI: 4.47 µM
SN12C renal
  TGI: 3.31 µM
UACC-257 melanoma
  TGI: 3.45 µM

## COc1ccc2nc3ccccc3c(NCCCN(C)CCCl)c2c1
BT-549 breast
  TGI: 2.57 µM
COLO 205 colon
  TGI: 1.65 µM
DU-145 prostate
  TGI: 1.48 µM
HCT-116 colon
  TGI: 1.36 µM
LOX IMVI melanoma
  TGI: 1.16 µM
NCI-H23 lung
  TGI: 1.2 µM
OVCAR-5 ovarian
  TGI: 3.4 µM
RPMI-8226 leukemia
  TGI: 1.12 µM
SN12C renal
  TGI: 1.55 µM
UACC-257 melanoma
  TGI: 2.24 µM

## COc1ccc(-c2c(-c3cc(OC)c(OC)c(OC)c3)noc2N)cc1
BT-549 breast
  GI50: 21.5 nM
  TGI: 0.0673 µM
COLO 205 colon
  GI50: < 12.3 nM
  TGI: 0.0551 µM
DU-145 prostate
  GI50: 0.0187 µM
  TGI: 1.32 µM
HCT-116 colon
  GI50: < 10 nM
  TGI: > 32 µM
LOX IMVI melanoma
  GI50: < 14.1 nM
  TGI: > 100 µM
NCI-H23 lung
  GI50: 19.8 nM
  TGI: 30 µM
OVCAR-5 ovarian
  GI50: 44.1 nM
  TGI: > 70 µM
RPMI-8226 leukemia
  GI50: 0.0474 µM
  TGI: 5.96 µM
SN12C renal
  GI50: 37.4 nM
  TGI: > 69.8 µM
UACC-257 melanoma
  GI50: < 10 nM
  TGI: > 100 µM

## CNC(=O)Oc1cc(C)c(/C=C/c2cncc(C(=O)NC)c2)c(C)c1
BT-549 breast
  GI50: > 25000 nM
  TGI: > 25 µM
COLO 205 colon
  GI50: > 25000 nM
  TGI: > 25 µM
DU-145 prostate
  GI50: > 25 µM
  TGI: > 25 µM
HCT-116 colon
  GI50: > 25000 nM
  TGI: > 25 µM
LOX IMVI melanoma
  GI50: 15900 nM
  TGI: > 25 µM
NCI-H23 lung
  GI50: > 25000 nM
  TGI: > 25 µM
OVCAR-5 ovarian
  GI50: > 25000 nM
  TGI: > 25 µM
RPMI-8226 leukemia
  GI50: > 25 µM
  TGI: > 25 µM
SN12C renal
  GI50: > 25000 nM
  TGI: > 25 µM
UACC-257 melanoma
  GI50: 24700 nM
  TGI: > 25 µM

## COc1cc(O)c2c(c1)C(=O)c1cc3c(c(O)c1C2=O)C(OC1OC(C)C(O)C(O)C1OC)C(OC)C(C)(O)C3=O (stereo not drawn)
BT-549 breast
  GI50: 2070 nM
  TGI: 5.18 µM
COLO 205 colon
  GI50: 1310 nM
  TGI: 5.2 µM and 3.25 µM
DU-145 prostate
  GI50: 3.11 µM
  TGI: 11.5 µM
HCT-116 colon
  GI50: 1630 nM and 665 nM
  TGI: 6.56 µM and 5.88 µM
LOX IMVI melanoma
  GI50: 1670 nM
  TGI: 4.91 µM and 7.1 µM
NCI-H23 lung
  GI50: 2360 nM
  TGI: 6.03 µM and 8.08 µM
OVCAR-5 ovarian
  GI50: 2180 nM
  TGI: 8.48 µM and 9.24 µM
RPMI-8226 leukemia
  GI50: 2.46 µM and 9.76 µM
  TGI: 59.6 µM and 30.5 µM
SN12C renal
  TGI: 7.18 µM and 7.44 µM
UACC-257 melanoma
  GI50: 1980 nM
  TGI: 5.25 µM and 2.5 µM

## C[C@H]1[C@H]2[C@H]3CC[C@@H]4[C@@]5(C)C/C(=C/c6cccnc6)C(=O)C(C)(C)[C@@H]5CC[C@@]4(C)[C@]3(C)CC[C@]23CO[C@]1(C)[C@@H](C(=O)/C=C\c1cccnc1)C3
BT-549 breast
  GI50: 785 nM
  TGI: 1.83 µM
COLO 205 colon
  GI50: 1430 nM
  TGI: 4.53 µM
DU-145 prostate
  GI50: 0.923 µM
  TGI: 1.71 µM
HCT-116 colon
  GI50: 385 nM
  TGI: 1.28 µM
LOX IMVI melanoma
  GI50: 783 nM
  TGI: 1.57 µM
NCI-H23 lung
  GI50: 1030 nM
  TGI: 2.48 µM
OVCAR-5 ovarian
  GI50: 1460 nM
  TGI: 4.43 µM
RPMI-8226 leukemia
  GI50: 0.255 µM
  TGI: 2.26 µM
SN12C renal
  GI50: 1100 nM
  TGI: > 11.8 µM
UACC-257 melanoma
  GI50: 1740 nM
  TGI: 9.85 µM

## COc1ccc(-c2cc(-c3ccc(O)cc3)nc3n[nH]c(N)c23)cc1
BT-549 breast
  GI50: 15500 nM
  TGI: 32.6 µM
COLO 205 colon
  GI50: 14600 nM
  TGI: 32.4 µM
DU-145 prostate
  GI50: 15.3 µM
  TGI: 36.5 µM
HCT-116 colon
  GI50: 17400 nM
  TGI: 37.3 µM
LOX IMVI melanoma
  GI50: 17000 nM
  TGI: 36.4 µM
NCI-H23 lung
  GI50: 26500 nM
  TGI: 68.3 µM
OVCAR-5 ovarian
  GI50: 15100 nM
  TGI: 48.2 µM
RPMI-8226 leukemia
  GI50: 21.1 µM
  TGI: 66.8 µM
SN12C renal
  GI50: 19200 nM
  TGI: 36.5 µM
UACC-257 melanoma
  GI50: 21800 nM
  TGI: 56.9 µM

## CCc1ccc2c(c1)N(CCO)C1=C(C(=O)OC1)C2c1cccc(Cl)c1 (stereo not drawn)
BT-549 breast
  GI50: 1980 nM
  TGI: 18.7 µM
COLO 205 colon
  GI50: 522 nM
  TGI: 2.63 µM
DU-145 prostate
  GI50: 1.67 µM
  TGI: 13.5 µM
HCT-116 colon
  GI50: 498 nM
  TGI: 13.1 µM
LOX IMVI melanoma
  GI50: 684 nM
  TGI: 17.7 µM
NCI-H23 lung
  GI50: 923 nM
  TGI: 20.9 µM
OVCAR-5 ovarian
  GI50: 4610 nM
  TGI: 23.4 µM
RPMI-8226 leukemia
  GI50: 3.38 µM
  TGI: 52.6 µM
SN12C renal
  GI50: 2030 nM
  TGI: 19 µM
UACC-257 melanoma
  GI50: 772 nM
  TGI: 23.6 µM

## COc1ccc(-c2nc(N3CCN(C(=O)C4CCCCC4)CC3)c3c4c(sc3n2)CCCC4)cc1
BT-549 breast
  GI50: 57500 nM
  TGI: > 100 µM
COLO 205 colon
  GI50: > 100000 nM
  TGI: > 100 µM
DU-145 prostate
  GI50: > 100 µM
  TGI: > 100 µM
HCT-116 colon
  GI50: 34200 nM
  TGI: > 100 µM
LOX IMVI melanoma
  GI50: > 100000 nM
  TGI: > 100 µM
NCI-H23 lung
  GI50: 63100 nM
  TGI: > 100 µM
OVCAR-5 ovarian
  GI50: > 100000 nM
  TGI: > 100 µM
RPMI-8226 leukemia
  GI50: 22 µM
  TGI: > 100 µM
SN12C renal
  GI50: > 100000 nM
  TGI: > 100 µM
UACC-257 melanoma
  GI50: > 100000 nM
  TGI: > 100 µM
